In patent US5659041A, “Hydrazino-type radionuclide chelators having an N3 S configuration” (Resolution Pharmaceuticals, Inc., priority 1994, dated 1997):
Numbered stars: 1 amine (or outer) side, 2 acyl side, 3 side chain; on linkers, the order of the positions; unused ones are H or OH. Square brackets hold non-standard residues; d marks the D form. Peptide text beside a SMILES is read from it. X2 = CN(N[*:1])c1ccc(C(=O)[*:2])cn1; X1 = O=C(CSCN[*:1])[*:2]

How the values were obtained:
[1] = In vivo distribution of 99mTc labeled chelators within rats; set-up: species or system male Wistar rats; settings: rat, i.v. tail vein
Protocol: Distribution within rats of selected chelators and a reference chelator was determined using established protocols. Briefly, male Wistar rats (Charles River, 200 g) were anesthetized with somnitol (40 to 50 mg/kg) and 200 μL of the labeled chelator (ie. 200 μCi) was injected intravenously via the tail vein. Serial whole-body scintigrams were acquired for first 10 minutes. After further images were obtained at 60 and 120 minutes, the rat was killed with anesthesia and samples of organs (blood, heart, lung, liver, spleen, kidney, muscle, GI tract) were weighed and counted in either a well-type gamma counter or in a gamma dose calibrator. Dose calculations were made based On the assumption that rats weighed 200 g and that the blood volume constituted 8% body weight. All results were corrected for the residual dose in the tail.

[2] = system: "Tuftsin" receptors on leukocytes; test: Binding of TKPPR peptide to Tuftsin receptors on leukocytes
[3] = Extent of complexation of 99mTc with chelators (radioactivity of eluted C-18 Sep-Pak fractions); type: physicochemical; settings: for Chelator (EtOH-saline eluate), percent of total / Chelator (EtOH-saline eluate), radioactivity / TcO2, percent of total / TcO2, radioactivity / TcO4- (HCl eluate), percent of total / TcO4- (HCl eluate), radioactivity of eluted fraction: Example 2: SnCl2, pH 6, Example 4: sodium dithionite, pH 12-13, 75° C.
Protocol: The chelator N-(S-benzoylmercaptoacetyl)-glycyl-2-pyridylhydrazide (example 2, 1 mg) was dissolved in EtOH-water and hydrolyzed by heating with NaOH, after which the reaction mixture was neutralized with acetic acid to pH 6. 350 μg hydrolyzed chelator was reacted with 103 MBq TcO4^- and 10 μg SnCl2 at room temperature. […] To achieve adequate separation of the chelator, the solution was then loaded on a C-18 SepLPak column which was eluted with dilute HCI to remove Tc04-. Subsequent elution with 1:1 EtOH-saline removed the chelator while Tc02 remained on the column.
Another chelator was similarly labeled. Particularly, 300 μg of the hydrolyzed chelator N-(S-benzoylmercaptoacetyl)-glycyl-3-(6-chloropyridazyl)-hydrazide (example 4) was adjusted to pH 12-13 and reduced with 100 μg of sodium dithionite for 10 minutes at 75° C. The resulting mixture was then loaded on a C-18 Sep-Pak column and eluted with dilute HCI followed by EtOH-saline. The extent of complexation of ^99m Tc with chelators was measured by radioactivity of the eluted fractions; results are shown in the table below.

[4] = Labeling of chelator-conjugate with 99mTc (HPLC radioactivity of fractions); type: physicochemical; settings: pertechnetate, stannous gluconate, boiling water bath 12 minutes
Protocol: The chelator-conjugate of example 11 (200 μL, 1 mg/mL saline) was injected into a 3 mL vacutainer with 100 μL pertechnetate (10 mCi) and 100 μL stannous gluconate (50 μg stannous chloride and 1 mg sodium gluconate). The tube was placed in a boiling water bath for 12 minutes and then filtered through a Watman PVDF syringe filter to collect the labeled conjugate solution which was further diluted with saline to prepare an injectable solution (2 Mbq/mL). The chelator-conjugate was isolated by HPLC (Beckman) from a (20 μL) sample (before dilution) to determine the labeling yield by measuring radioactivity of the fractions. 70.8%, 5.1% and 15.0% of the label was found in each of three fractions eluted for a 90.9% total labeling yield.

[5] = 200 μCi, organs counted after 120 minutes images

COC(=O)CC[C@H](NC(=O)CSC(=O)c1ccccc1)C(=O)NNc1ccccn1 [Example 3, No(S-benzoylmercaptoacetyl)-L-glutamyl-(gamma-methyl ester)-2-pyridylhydrazide]
accumulation in the kidney ([1]; 200 μCi, compared with the other chelators): greatest accumulation in the kidney

O=C(CNC(=O)CSC(=O)c1ccccc1)NCc1ccccn1 [N-(S-benzoylmercaptoacetyl)-glycyl-2-pyridylmethylamide, reference compound]
retention in the blood pool ([1]; reference chelator lacking hydrazide): extensively retained in the blood pool

TKPPR
binding to "Tuftsin" receptors on leukocytes [2]: binds particularly well

O=C(CSC(=O)c1ccccc1)NCC(=O)NNc1ccc(Cl)nn1 [Example 4, N-(S-benzoylmercaptoacetyl)-glycyl-3-(6-chloropyridazyl)-hydrazide]
clearance from the blood (and other tissues) ([1]; 200 μCi): fastest clearance from the blood and other tissues | route of elimination ([1]; 200 μCi): mainly eliminated through the liver and GI tract | dose in the liver and GI tract [1, 5]: About 70% | Chelator (EtOH-saline eluate), percent of total [3]: 78% | Chelator (EtOH-saline eluate), radioactivity [3]: 14.19 MBq | TcO2, percent of total [3]: 14% | TcO2, radioactivity [3]: 2.55 MBq | TcO4- (HCl eluate), percent of total [3]: 8% | TcO4- (HCl eluate), radioactivity of eluted fraction [3]: 1.38 MBq

CC(=O)NCSCC(=O)N[C@@H](CO)C(=O)NN(C)c1ccc(C(=O)NCC(=O)N[C@H](C(=O)N[C@@H](CCCCN)C(=O)N2CCC[C@H]2C(=O)N2CCC[C@H]2C(=O)N[C@@H](CCCNC(=N)N)C(=O)O)[C@@H](C)O)cn1 [Example 11, S-Acm-Mercaptoacetyl-Ser-N-methylhydrazino nicotinic acid- Gly--Thr--Lys--Pro--Pro--Arg] (Ac-[X1]S[X2]GTKPPR-OH)
total labeling yield [4]: 90.9%

COC(=O)CC[C@H](NC(=O)CSC(=O)c1ccccc1)C(=O)NNc1ccc(Cl)nn1 [Example 5, N-(S-benzoylmercaptoacetyl)-L-glutamyl-(gamma-methylester)-3-(6-chloropyridazyl)-hydrazide]
dose localized in the GI tract [1, 5]: 55% | dose remaining in the blood [1, 5]: about 10%

O=C(CSC(=O)c1ccccc1)NCC(=O)NNc1ccccn1 [Example 2, N-(S-benzoylmercaptoacetyl)-glycyl-2-pyridylhydrazide]
dose in the liver and GI tract [1, 5]: about 60% | dose remaining in the blood [1, 5]: about 6% | Chelator (EtOH-saline eluate), percent of total [3]: 68% | Chelator (EtOH-saline eluate), radioactivity [3]: 27.6 MBq | TcO2, percent of total [3]: 31% | TcO2, radioactivity [3]: 12.5 MBq | TcO4- (HCl eluate), percent of total [3]: 1% | TcO4- (HCl eluate), radioactivity of eluted fraction [3]: 0.15 MBq | activity present as TcO2 ([3]; SnCl2 at room temperature, pH 6, did not change after heating 10 minutes at 80° C.): Approximately half activity was present as TcO2
